Laboratory results as given in PMC4467398, “Preclinical antitumor activity of ST7612AA1: a new oral thiol-based histone deacetylase (HDAC) inhibitor” (Oncotarget, 2014).

System: DOHH2 and TMD8 DLBCL cells
Assay: Gene expression profiling (HumanHT-12 v4 BeadChip, limma), ST7612AA1 300 nM 8 hrs vs DMSO
Format: cell-based, human
Details: 300 nM 8 hrs vs DMSO

In the case of `CC(=O)SCCCCC[C@H](NC(=O)[C@H]1CCC(=O)N1)C(=O)Nc1ccccc1` [ST7612AA1], the “log ratio LOC285359 (ILMN_1675878)” value is reported as 6.44E-01, the “log ratio LOC388588 (probe ILMN_1749834)” value is reported as 7.07E-01 and the “log ratio LOC389816 (ILMN_2249018)” value is reported as 6.55E-01. The “log ratio LOC643384 (ILMN_3219806)” value was -1.06E+00, the “log ratio LOC644563 (ILMN_3207122)” value was -1.31E+00 and the “log ratio LOC644988 (ILMN_3201485)” value was 6.07E-01. The “log ratio LOC646463 (ILMN_1721651)” value was 6.71E-01, the “log ratio LOC646786 (ILMN_1654915)” value was 6.50E-01 and the “log ratio LOC646817 (ILMN_1702585)” value was -1.11E+00. For the same compound, the “log ratio LOC647784 (ILMN_1674710)” value was 6.05E-01, the “log ratio LOC650215 (ILMN_1743711)” value was -8.77E-01 and the “log ratio LOC653566 (ILMN_1780382)” value was -6.21E-01. For the same compound, the “log ratio LOC654191 (probe ILMN_1762308)” value was 7.84E-01, the “log ratio LOC727935 (probe ILMN_1691616)” value was 7.14E-01 and the “log ratio LOC728014 (probe ILMN_1711699)” value was 8.58E-01. The “log ratio LOC728492 (ILMN_1655444)” value was -8.05E-01, the “log ratio LOC728602 (ILMN_3305993)” value was 6.70E-01 and the “log ratio LOC728650 (ILMN_3234615)” value was -8.83E-01. For the same compound, the “log ratio LOC729495 (probe ILMN_3297510)” value was 7.45E-01, the “log ratio LOC730101 (probe ILMN_3305735)” value was 7.41E-01 and the “log ratio LOC730415 (probe ILMN_3228688)” value was 6.95E-01. For the same compound, the “log ratio LOC731049 (ILMN_1808591)” value was 6.61E-01, the “log ratio LOC731314 (probe ILMN_1785756)” value was 8.31E-01 and the “log ratio LOC100128163 (probe ILMN_3182893)” value was 7.83E-01. The “log ratio LOC100130919 (ILMN_3176090)” value was -8.14E-01, the “log ratio LOC100131727 (probe ILMN_3292990)” value was 7.73E-01 and the “log ratio LOC100131735 (ILMN_3208233)” value was -5.90E-01. For the same compound, the “log ratio LOC100132715 (ILMN_3211935)” value was -5.93E-01, the “log ratio LOC100133583 (probe ILMN_3214389)” value was 8.94E-01 and the “log ratio LOC100133678 (probe ILMN_3249667)” value was 8.11E-01. The “log ratio LOC100134361 (probe ILMN_3241081)” value was 8.59E-01, the “log ratio LPCAT3 (ILMN_1805225)” value was 6.30E-01 and the “log ratio LRCH4 (probe ILMN_2157075)” value was 8.54E-01. For the same compound, the “log ratio LRP8 (ILMN_1677765)” value was -8.68E-01, the “log ratio LRRC1 (probe ILMN_1755383)” value was 7.83E-01 and the “log ratio LRRC16 (ILMN_1736730)” value was 5.94E-01. For the same compound, the “log ratio LRRC32 (ILMN_2129161)” value was 6.30E-01, the “log ratio LRRC33 (ILMN_1746148)” value was -1.42E+00 and the “log ratio LRRFIP2 (ILMN_1707156)” value was 6.31E-01. For the same compound, the “log ratio LRRK1 (ILMN_1696004)” value was -8.42E-01, the “log ratio LTA4H (probe ILMN_1690342)” value was 7.50E-01 and the “log ratio LUZP1 (ILMN_1714159)” value was 6.25E-01. For the same compound, the “log ratio LYAR (ILMN_1764362)” value was -8.62E-01, the “log ratio LYAR (ILMN_2221564)” value was -9.24E-01 and the “log ratio LYRM5 (probe ILMN_1744534)” value was 7.90E-01. The “log ratio LYRM7 (ILMN_3238623)” value was 6.34E-01, the “log ratio LYSMD4 (probe ILMN_2159859)” value was 6.95E-01 and the “log ratio MAD2L2 (ILMN_1669550)” value was 6.43E-01. The “log ratio MAK16 (ILMN_1777139)” value was -7.86E-01, the “log ratio MAP1LC3B (probe ILMN_1703244)” value was 7.73E-01 and the “log ratio MAP1S (ILMN_1796336)” value was 6.11E-01. For the same compound, the “log ratio MAP2K1 (probe ILMN_1694240)” value was 7.15E-01, the “log ratio MAPKAPK2 (ILMN_1774844)” value was 6.77E-01 and the “log ratio MAPRE2 (probe ILMN_1695276)” value was 7.72E-01. For the same compound, the “log ratio MARCKSL1 (probe ILMN_1714433)” value was 8.47E-01, the “log ratio MAST3 (probe ILMN_1738749)” value was 7.21E-01 and the “log ratio MCL1 (ILMN_1756806)” value was 6.49E-01. The “log ratio MCRS1 (ILMN_1784227)” value was -9.30E-01, the “log ratio MED24 (ILMN_2388272)” value was -6.00E-01 and the “log ratio MEPCE (ILMN_2180827)” value was -8.77E-01. For the same compound, the “log ratio METTL1 (ILMN_1815190)” value was -9.82E-01, the “log ratio METTL1 (ILMN_3306997)” value was -9.97E-01 and the “log ratio MEX3C (ILMN_1658182)” value was -6.16E-01. The “log ratio MGC3731 (ILMN_1759991)” value was -9.43E-01, the “log ratio MGEA5 (ILMN_1686750)” value was 6.73E-01 and the “log ratio MINA (ILMN_1746025)” value was -5.93E-01. The “log ratio MNS1 (probe ILMN_2157240)” value was 7.07E-01, the “log ratio MPDU1 (ILMN_1655654)” value was -1.02E+00 and the “log ratio MPDU1 (ILMN_2070815)” value was -8.19E-01. For the same compound, the “log ratio MRLC2 (ILMN_1654016)” value was 5.90E-01, the “log ratio MRPL3 (ILMN_1713143)” value was -8.76E-01 and the “log ratio MRPL20 (ILMN_2189424)” value was -8.46E-01. For the same compound, the “log ratio MRPL24 (ILMN_2398995)” value was -6.00E-01, the “log ratio MRPL35 (ILMN_2341952)” value was -5.96E-01 and the “log ratio MRPL54 (ILMN_1658486)” value was -9.87E-01. The “log ratio MRPS26 (ILMN_1676026)” value was -7.88E-01, the “log ratio MRPS30 (ILMN_1726743)” value was -5.98E-01 and the “log ratio MRPS35 (ILMN_2189993)” value was -8.24E-01. The “log ratio MRTO4 (ILMN_1689800)” value was -9.19E-01, the “log ratio MTE (probe ILMN_2136089)” value was 8.56E-01 and the “log ratio MTHFD1L (ILMN_1772521)” value was -9.66E-01. For the same compound, the “log ratio MTHFS (ILMN_1772302)” value was -1.28E+00, the “log ratio MTP18 (ILMN_2355665)” value was -9.91E-01 and the “log ratio MTX3 (ILMN_1679071)” value was -6.10E-01. For the same compound, the “log ratio MYB (ILMN_1711894)” value was -9.88E-01, the “log ratio MYBL1 (probe ILMN_3241046)” value was 7.69E-01 and the “log ratio MYD88 (ILMN_1738523)” value was -1.17E+00. The “log ratio MYH9 (ILMN_1722872)” value was 6.24E-01, the “log ratio MYH10 (ILMN_1815154)” value was 5.97E-01 and the “log ratio N6AMT2 (ILMN_1730260)” value was -9.90E-01. For the same compound, the “log ratio NARG1 (ILMN_1669142)” value was -6.10E-01, the “log ratio NBN (ILMN_1734833)” value was -9.40E-01 and the “log ratio NECAP2 (ILMN_1749011)” value was 6.12E-01. For the same compound, the “log ratio NEK2 (ILMN_2051373)” value was 6.21E-01, the “log ratio NGDN (ILMN_1690049)” value was -6.03E-01 and the “log ratio NIP7 (ILMN_1704305)” value was -1.05E+00. The “log ratio NLGN2 (ILMN_1764158)” value was 6.16E-01, the “log ratio NMI (ILMN_1739541)” value was -9.86E-01 and the “log ratio NOL6 (ILMN_2320250)” value was -8.75E-01. The “log ratio NOL11 (ILMN_1688971)” value was -7.88E-01, the “log ratio NOP16 (ILMN_3247723)” value was -1.13E+00 and the “log ratio NOSIP (probe ILMN_1759436)” value was 7.06E-01. For the same compound, the “log ratio NPC2 (probe ILMN_1716678)” value was 8.44E-01, the “log ratio NPHP3 (ILMN_1730539)” value was 6.73E-01 and the “log ratio NPL (probe ILMN_1782070)” value was 7.76E-01. The “log ratio NPL (probe ILMN_2149494)” value was 8.88E-01, the “log ratio NQO2 (probe ILMN_1712918)” value was 8.69E-01 and the “log ratio NSMAF (ILMN_1716596)” value was -1.37E+00. For the same compound, the “log ratio NUB1 (probe ILMN_1665291)” value was 7.20E-01, the “log ratio NUCKS1 (ILMN_3251404)” value was -5.98E-01 and the “log ratio NUDT6 (ILMN_2366972)” value was 5.92E-01. The “log ratio NUDT15 (ILMN_1751403)” value was -5.98E-01, the “log ratio NUMB (probe ILMN_2331266)” value was 7.27E-01 and the “log ratio NUP188 (ILMN_1715416)” value was -5.95E-01. For the same compound, the “log ratio NXF1 (probe ILMN_1705783)” value was 8.80E-01, the “log ratio NXF1 (probe ILMN_2358652)” value was 7.18E-01 and the “log ratio NXT1 (ILMN_1760280)” value was -8.51E-01. The “log ratio OAS2 (ILMN_2248970)” value was -1.29E+00, the “log ratio OSBPL2 (ILMN_1656482)” value was 6.07E-01 and the “log ratio P704P (probe ILMN_1793950)” value was 6.85E-01. The “log ratio PAG1 (ILMN_2055156)” value was 6.63E-01, the “log ratio PAQR3 (ILMN_1716071)” value was 6.81E-01 and the “log ratio PAQR8 (probe ILMN_1694589)” value was 7.20E-01. The “log ratio PCMT1 (ILMN_1671621)” value was 6.27E-01, the “log ratio PCTP (ILMN_1802257)” value was 6.55E-01 and the “log ratio PCYOX1 (probe ILMN_1679725)” value was 7.89E-01. The “log ratio PDCD2 (ILMN_1758915)” value was -8.70E-01, the “log ratio PDXK (probe ILMN_1672504)” value was 8.94E-01 and the “log ratio PECI (probe ILMN_2384536)” value was 8.25E-01. For the same compound, the “log ratio PEMT (ILMN_1745806)” value was -5.93E-01, the “log ratio PEX16 (probe ILMN_1745655)” value was 7.84E-01 and the “log ratio PFKFB3 (ILMN_2186061)” value was 6.71E-01. For the same compound, the “log ratio PHF5A (ILMN_2112402)” value was -8.44E-01, the “log ratio PHF15 (ILMN_1795285)” value was -8.13E-01 and the “log ratio PHF19 (ILMN_1713249)” value was -1.52E+00. The “log ratio PHF19 (ILMN_1745420)” value was -1.01E+00, the “log ratio PIGW (ILMN_1743397)” value was -1.03E+00 and the “log ratio PIM2 (probe ILMN_1748283)” value was 7.43E-01. The “log ratio PITX1 (ILMN_1674386)” value was -8.58E-01, the “log ratio PKIA (ILMN_1762262)” value was 6.12E-01 and the “log ratio PKIA (probe ILMN_2337974)” value was 7.37E-01. The “log ratio PLD3 (probe ILMN_1666976)” value was 8.81E-01, the “log ratio PLD6 (ILMN_1731518)” value was -1.18E+00 and the “log ratio PLD6 (ILMN_3240586)” value was -1.84E+00. For the same compound, the “log ratio PLIN2 (ILMN_2138765)” value was 5.92E-01, the “log ratio PLS1 (ILMN_1759206)” value was 6.43E-01 and the “log ratio PLXNA3 (ILMN_1719972)” value was 6.52E-01. The “log ratio PMAIP1 (probe ILMN_2098446)” value was 8.50E-01 and the “log ratio PNKD (probe ILMN_1774604)” value was 7.25E-01.
